In ChEMBL document CHEMBL1151840, “Synthetic oligoribonucleotides containing arabinonucleotides act as agonists of TLR7 and 8” (Bioorg Med Chem Lett, 2009):
The source made the active and inactive calls. The rule behind the calls is not given here.

Tests used:
[1] = target: T1, Toll-like receptor 8 (Homo sapiens) (UniProt Q9NR97); test: Agonist activity at human TLR8 expressed in HEK293XL cells assessed as NF-kappaB activation after 18 hrs; format: functional, cell-based
T1 sequence (whole entry): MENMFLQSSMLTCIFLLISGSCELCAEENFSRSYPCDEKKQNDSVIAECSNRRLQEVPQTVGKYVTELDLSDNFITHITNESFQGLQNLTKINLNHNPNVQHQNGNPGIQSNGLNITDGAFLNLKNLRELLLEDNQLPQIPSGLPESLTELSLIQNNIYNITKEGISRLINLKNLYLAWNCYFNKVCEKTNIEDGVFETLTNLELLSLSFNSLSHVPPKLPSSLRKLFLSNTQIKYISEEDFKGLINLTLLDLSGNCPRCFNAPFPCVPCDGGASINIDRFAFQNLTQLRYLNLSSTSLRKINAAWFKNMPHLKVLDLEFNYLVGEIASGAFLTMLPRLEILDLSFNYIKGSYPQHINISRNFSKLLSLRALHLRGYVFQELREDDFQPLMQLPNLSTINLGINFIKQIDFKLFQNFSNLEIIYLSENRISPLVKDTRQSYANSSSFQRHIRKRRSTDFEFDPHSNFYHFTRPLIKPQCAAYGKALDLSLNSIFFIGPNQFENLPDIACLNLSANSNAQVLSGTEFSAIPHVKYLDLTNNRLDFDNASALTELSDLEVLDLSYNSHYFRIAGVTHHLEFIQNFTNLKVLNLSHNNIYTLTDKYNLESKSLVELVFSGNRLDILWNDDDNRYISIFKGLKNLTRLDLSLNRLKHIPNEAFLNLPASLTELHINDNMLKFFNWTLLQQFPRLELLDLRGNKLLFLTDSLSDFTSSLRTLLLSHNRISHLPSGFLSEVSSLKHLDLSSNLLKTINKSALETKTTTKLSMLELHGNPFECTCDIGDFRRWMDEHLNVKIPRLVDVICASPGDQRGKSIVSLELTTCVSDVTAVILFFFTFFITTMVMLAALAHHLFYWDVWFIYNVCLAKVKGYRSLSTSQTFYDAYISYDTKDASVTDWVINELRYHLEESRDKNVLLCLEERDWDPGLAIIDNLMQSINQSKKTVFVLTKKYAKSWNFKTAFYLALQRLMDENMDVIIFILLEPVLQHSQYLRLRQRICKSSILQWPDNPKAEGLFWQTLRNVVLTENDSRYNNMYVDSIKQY

[2] = target: T2, Toll-like receptor 7 (Homo sapiens) (UniProt Q9NYK1); test: Agonist activity at human TLR7 expressed in HEK293XL cells assessed as NF-kappaB activation after 18 hrs; format: functional, cell-based
T2 sequence (whole entry): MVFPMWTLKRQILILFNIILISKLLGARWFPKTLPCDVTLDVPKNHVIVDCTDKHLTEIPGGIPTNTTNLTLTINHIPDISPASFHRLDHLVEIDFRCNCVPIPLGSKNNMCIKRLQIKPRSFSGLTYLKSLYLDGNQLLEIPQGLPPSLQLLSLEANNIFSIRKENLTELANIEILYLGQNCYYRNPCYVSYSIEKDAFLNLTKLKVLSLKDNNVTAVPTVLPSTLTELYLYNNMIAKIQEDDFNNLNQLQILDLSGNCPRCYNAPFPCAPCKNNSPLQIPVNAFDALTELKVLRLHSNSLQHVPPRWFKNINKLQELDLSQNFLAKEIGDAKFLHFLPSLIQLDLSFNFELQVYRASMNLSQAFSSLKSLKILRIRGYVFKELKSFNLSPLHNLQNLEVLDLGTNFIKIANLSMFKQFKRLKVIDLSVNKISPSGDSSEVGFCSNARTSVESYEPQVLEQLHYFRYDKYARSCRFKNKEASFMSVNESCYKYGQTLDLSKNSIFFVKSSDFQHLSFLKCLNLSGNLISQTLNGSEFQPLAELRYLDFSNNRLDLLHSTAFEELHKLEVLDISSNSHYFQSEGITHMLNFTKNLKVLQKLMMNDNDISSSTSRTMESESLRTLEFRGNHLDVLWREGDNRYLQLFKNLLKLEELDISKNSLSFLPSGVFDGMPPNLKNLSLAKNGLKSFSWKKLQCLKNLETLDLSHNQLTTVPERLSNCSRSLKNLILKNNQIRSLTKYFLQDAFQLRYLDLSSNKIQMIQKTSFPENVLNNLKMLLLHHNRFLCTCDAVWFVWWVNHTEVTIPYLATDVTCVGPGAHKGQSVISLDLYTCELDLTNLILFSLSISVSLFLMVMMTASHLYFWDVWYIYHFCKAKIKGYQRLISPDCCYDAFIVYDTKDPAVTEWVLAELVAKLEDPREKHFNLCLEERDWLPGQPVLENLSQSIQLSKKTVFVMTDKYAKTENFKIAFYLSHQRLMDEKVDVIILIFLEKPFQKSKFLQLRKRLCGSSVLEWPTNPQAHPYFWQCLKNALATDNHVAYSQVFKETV

[3] = system: PBMC; test: Stimulation of immune response in human PBMC assessed as induction of IL1-beta production at 150 ug/ml after 24 hrs; format: functional, cell-based
[4] = system: PBMC; test: Stimulation of immune response in human PBMC assessed as induction of IL2R level at 150 ug/ml after 24 hrs; format: functional, cell-based
[5] = system: PBMC; test: Stimulation of immune response in human PBMC assessed as induction of IL8 production at 150 ug/ml after 24 hrs; format: functional, cell-based
[6] = system: PBMC; test: Stimulation of immune response in human PBMC assessed as induction of IL10 production at 150 ug/ml after 24 hrs; format: functional, cell-based
[7] = system: PBMC; test: Stimulation of immune response in human PBMC assessed as induction of IL12 production at 150 ug/ml after 24 hrs; format: functional, cell-based
[8] = system: PBMC; test: Stimulation of immune response in human PBMC assessed as induction of IFNalpha production at 150 ug/ml after 24 hrs; format: functional, cell-based
[9] = system: PBMC; test: Stimulation of immune response in human PBMC assessed as induction of IFN-gamma production at 150 ug/ml after 24 hrs; format: functional, cell-based
[10] = system: PBMC; test: Stimulation of immune response in human PBMC assessed as induction of MCP1 production at 150 ug/ml after 24 hrs; format: functional, cell-based
[11] = system: PBMC; test: Stimulation of immune response in human PBMC assessed as induction of RANTES production at 150 ug/ml after 24 hrs; format: functional, cell-based
[12] = system: PBMC; test: Stimulation of immune response in human PBMC assessed as induction of MIP1alpha production at 150 ug/ml after 24 hrs; format: functional, cell-based
[13] = system: PBMC; test: Stimulation of immune response in human PBMC assessed as induction of MIP1beta production at 150 ug/ml after 24 hrs; format: functional, cell-based
[14] = system: PBMC; test: Stimulation of immune response in human PBMC assessed as induction of TNFalpha production at 150 ug/ml after 24 hrs; format: functional, cell-based
[15] = species: Homo sapiens; test: Stimulation of immune response in human pDC assessed as induction of IFN-gamma production at 150 ug/ml after 24 hrs; format: functional
[16] = species: Homo sapiens; test: Stimulation of immune response in human pDC assessed as induction of IFNalpha production at 150 ug/ml after 24 hrs; format: functional
[17] = species: Homo sapiens; test: Stimulation of immune response in human pDC assessed as induction of IL12 production at 150 ug/ml after 24 hrs; format: functional
[18] = species: Homo sapiens; test: Stimulation of immune response in human pDC assessed as induction of TNFalpha production at 150 ug/ml after 24 hrs; format: functional
[19] = species: Homo sapiens; test: Stimulation of immune response in human pDC assessed as induction of MIP1alpha production at 150 ug/ml after 24 hrs; format: functional
[20] = species: Homo sapiens; test: Stimulation of immune response in human pDC assessed as induction of MIP1beta production at 150 ug/ml after 24 hrs; format: functional
[21] = system: Mus musculus; test: Stimulation of immune response in C57BL/6 mouse assessed as induction of serum IL12 production at 50 mg/kg, sc after 2 hrs by luminex multiplex assay; format: functional, organism-based; parameters: dose 50 mg/kg
[22] = Stability in human serum assessed as full-length compound remaining after 10 mins by anion-exchange HPLC; format: ADME, cell-free; conditions: read-out: Stability

Q: Which Activity [1] does the source give for `Nc1ccn([C@@H]2O[C@H](COP(=O)(S)O[C@H]3[C@@H](O)[C@H](n4cnc5c(N)ncnc54)O[C@@H]3COP(=O)(S)O[C@H]3[C@@H](O)[C@H](n4cnc5c(=O)[nH]c(N)nc54)O[C@@H]3COP(=O)(S)O[C@H]3[C@@H](O)[C@H](n4ccc(=O)[nH]c4=O)O[C@@H]3COP(=O)(S)O[C@H]3[C@@H](O)[C@H](n4cnc5c(=O)[nH]c(N)nc54)O[C@@H]3COP(=O)(S)O[C@H]3[C@@H](O)[C@H](n4ccc(=O)[nH]c4=O)O[C@@H]3COP(=O)(S)O[C@H]3[C@@H](O)[C@H](n4cnc5c(=O)[nH]c(N)nc54)O[C@@H]3COP(=O)(S)O[C@H]3[C@@H](O)[C@H](n4ccc(=O)[nH]c4=O)O[C@@H]3COP(=O)(S)O[C@H]3[C@@H](O)[C@H](n4ccc(=O)[nH]c4=O)O[C@@H]3COP(=O)(S)O[C@H]3[C@@H](O)[C@H](n4cnc5c(=O)[nH]c(N)nc54)O[C@@H]3COP(=O)(S)O[C@H]3[C@@H](O)[C@H](n4ccc(=O)[nH]c4=O)O[C@H]3CO)[C@@H](OP(=O)(S)OCC(O)COP(=O)(S)O[C@H]3[C@@H](O)[C@H](n4ccc(N)nc4=O)O[C@@H]3COP(=O)(S)O[C@H]3[C@@H](O)[C@H](n4cnc5c(N)ncnc54)O[C@@H]3COP(=O)(S)O[C@H]3[C@@H](O)[C@H](n4cnc5c(=O)[nH]c(N)nc54)O[C@@H]3COP(=O)(S)O[C@H]3[C@@H](O)[C@H](n4ccc(=O)[nH]c4=O)O[C@@H]3COP(=O)(S)O[C@H]3[C@@H](O)[C@H](n4cnc5c(=O)[nH]c(N)nc54)O[C@@H]3COP(=O)(S)O[C@H]3[C@@H](O)[C@H](n4ccc(=O)[nH]c4=O)O[C@@H]3COP(=O)(S)O[C@H]3[C@@H](O)[C@H](n4cnc5c(=O)[nH]c(N)nc54)O[C@@H]3COP(=O)(S)O[C@H]3[C@@H](O)[C@H](n4ccc(=O)[nH]c4=O)O[C@@H]3COP(=O)(S)O[C@H]3[C@@H](O)[C@H](n4ccc(=O)[nH]c4=O)O[C@@H]3COP(=O)(S)O[C@H]3[C@@H](O)[C@H](n4cnc5c(=O)[nH]c(N)nc54)O[C@@H]3COP(=O)(S)O[C@H]3[C@@H](O)[C@H](n4ccc(=O)[nH]c4=O)O[C@@H]3CO)[C@H]2O)c(=O)n1` (stereo in doubt; 5) here?
A: Dose-dependent effect

Q: And the Activity [2]?
A: inactive

Q: And the Activity [3]?
A: Active

Q: And the Activity [4]?
A: Active

Q: What about the Activity [5] of the same compound?
A: Active

Q: What about the Activity [6] of the same compound?
A: Active

Q: What about the Activity [7] of the same compound?
A: Active

Q: What about the Activity [8] of the same compound?
A: Active

Q: What about the Activity [9] of the same compound?
A: Active

Q: And the Activity [10]?
A: Active

Q: And the Activity [11]?
A: Active

Q: And the Activity [12]?
A: Active

Q: And the Activity [13]?
A: Active

Q: What about the Activity [14] of the same compound?
A: Active

Q: And the Activity [15]?
A: Active

Q: And the Activity [16]?
A: inactive

Q: And the Activity [17]?
A: Active

Q: What about the Activity [18] of the same compound?
A: Active

Q: What about the Activity [19] of the same compound?
A: Active

Q: And the Activity [20]?
A: Active

Q: What about the Activity [21] of the same compound?
A: inactive

Q: Which remaining at 10 min [22] does the source give for `Nc1ccn([C@@H]2O[C@H](COP(=O)(S)O[C@H]3[C@@H](O)[C@H](n4cnc5c(N)ncnc54)O[C@@H]3COP(=O)(S)O[C@H]3[C@@H](O)[C@H](n4cnc5c(=O)[nH]c(N)nc54)O[C@@H]3COP(=O)(S)O[C@H]3[C@@H](O)[C@H](n4ccc(=O)[nH]c4=O)O[C@@H]3COP(=O)(S)O[C@H]3[C@@H](O)[C@H](n4cnc5c(=O)[nH]c(N)nc54)O[C@@H]3COP(=O)(S)O[C@H]3[C@@H](O)[C@H](n4ccc(=O)[nH]c4=O)O[C@@H]3COP(=O)(S)O[C@H]3[C@@H](O)[C@H](n4cnc5c(=O)[nH]c(N)nc54)O[C@@H]3COP(=O)(S)O[C@H]3[C@@H](O)[C@H](n4ccc(=O)[nH]c4=O)O[C@@H]3COP(=O)(S)O[C@H]3[C@@H](O)[C@H](n4ccc(=O)[nH]c4=O)O[C@@H]3COP(=O)(S)O[C@H]3[C@@H](O)[C@H](n4cnc5c(=O)[nH]c(N)nc54)O[C@@H]3COP(=O)(S)O[C@H]3[C@@H](O)[C@H](n4ccc(=O)[nH]c4=O)O[C@H]3CO)[C@@H](OP(=O)(S)OCC(O)COP(=O)(S)O[C@H]3[C@@H](O)[C@H](n4ccc(N)nc4=O)O[C@@H]3COP(=O)(S)O[C@H]3[C@@H](O)[C@H](n4cnc5c(N)ncnc54)O[C@@H]3COP(=O)(S)O[C@H]3[C@@H](O)[C@H](n4cnc5c(=O)[nH]c(N)nc54)O[C@@H]3COP(=O)(S)O[C@H]3[C@@H](O)[C@H](n4ccc(=O)[nH]c4=O)O[C@@H]3COP(=O)(S)O[C@H]3[C@@H](O)[C@H](n4cnc5c(=O)[nH]c(N)nc54)O[C@@H]3COP(=O)(S)O[C@H]3[C@@H](O)[C@H](n4ccc(=O)[nH]c4=O)O[C@@H]3COP(=O)(S)O[C@H]3[C@@H](O)[C@H](n4cnc5c(=O)[nH]c(N)nc54)O[C@@H]3COP(=O)(S)O[C@H]3[C@@H](O)[C@H](n4ccc(=O)[nH]c4=O)O[C@@H]3COP(=O)(S)O[C@H]3[C@@H](O)[C@H](n4ccc(=O)[nH]c4=O)O[C@@H]3COP(=O)(S)O[C@H]3[C@@H](O)[C@H](n4cnc5c(=O)[nH]c(N)nc54)O[C@@H]3COP(=O)(S)O[C@H]3[C@@H](O)[C@H](n4ccc(=O)[nH]c4=O)O[C@@H]3CO)[C@H]2O)c(=O)n1` (stereo in doubt; 6) here?
A: 76%
